Results taken from patent publication US20180057505A1, “BICYCLIC HETEROARYL COMPOUNDS USEFUL AS INHIBITORS OF THE PAR-2 SIGNALING PATHWAY” (VERTEX PHARMACEUTICALS INCORPORATED, priority 2015, published 2018).

Columns and labels:
Type in all cases: cell-based
[1] = molecular target: T1, PAR2 (HT-29 cells) (Homo sapiens, UniProt P55085); assay: Ca FLIPR TETRA assay, ANTAGONIST mode, activator 8 μM SLIGKV; conditions: HT-29 cells, activator 8 μM SLIGKV; maximal antagonist concentration per Method (A: 0.1, 1 or 2 μM; B: 50 μM)
T1 construct: host or cells: HT-29
T1 sequence (P55085 26-397): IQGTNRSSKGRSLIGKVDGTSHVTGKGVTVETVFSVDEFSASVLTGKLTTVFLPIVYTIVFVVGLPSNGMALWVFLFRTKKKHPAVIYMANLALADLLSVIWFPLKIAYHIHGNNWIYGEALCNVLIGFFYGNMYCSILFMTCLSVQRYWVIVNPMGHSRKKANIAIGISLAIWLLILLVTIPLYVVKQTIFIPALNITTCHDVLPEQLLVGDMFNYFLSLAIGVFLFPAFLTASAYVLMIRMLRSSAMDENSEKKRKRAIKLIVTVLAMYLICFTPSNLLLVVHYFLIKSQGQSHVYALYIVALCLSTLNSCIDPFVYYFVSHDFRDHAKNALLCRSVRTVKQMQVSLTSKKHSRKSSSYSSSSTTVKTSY
Procedure, shortened: (§1)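 Antagonist mode, HT-29: cells O/N 37 °C, 1% FBS; calcium 5 dye 45 min 37 °C + 15 min RT; cpd (DMSO, HBSS-diluted) 30 min RT; activator at final conc. (8 μM SLIGKV / 1 U/mL thrombin / 3.1 U/mL trypsin / 0.6 μM UTP); FLIPR Tetra Ca2+ read.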

[2] = tested on: Thrombin-stimulated Ca2+ response in HT-29 cells; assay: Ca FLIPR TETRA assay, ANTAGONIST mode, activator 1 U/mL Thrombin; conditions: Homo sapiens; HT-29 cells, activator 1 U/mL Thrombin
Procedure, shortened: as §1

[3] = molecular target: T1, PAR2 (HT-29 cells); assay: Ca FLIPR TETRA assay, ANTAGONIST mode, activator 3.1 U/mL trypsin; conditions: HT-29 cells, activator 3.1 U/mL trypsin; maximal antagonist concentration per Method (A: 0.1, 1 or 2 μM; B: 50 μM)
Procedure, shortened: as §1

[4] = tested on: UTP-stimulated Ca2+ response in HT-29 cells; assay: Ca FLIPR TETRA assay, ANTAGONIST mode, activator 0.6 μM UTP; conditions: Homo sapiens; HT-29 cells, activator 0.6 μM UTP
Procedure, shortened: as §1

## CC(C)(C)c1cc(-c2ccc(C(F)(F)F)cc2)nc2cc(C(=O)N3CCN(C(=O)c4nnc[nH]4)CC3(C)C)oc12 [Example I-173]
[1]
  IC50: 4.8 nM
[2]
  IC50: > 1000 nM
[3]
  IC50: 7.5 nM
[4]
  IC50: > 1000 nM

## Cc1nnc(C(=O)N2CCN(C(=O)c3cc4nc(-c5ccc(C(F)(F)F)cc5)cc(C(C)(C)C)c4o3)C(C)(C)C2)[nH]1 [Example I-174]
[1]
  IC50: 1.9 nM
[2]
  IC50: > 1000 nM
[3]
  IC50: 3.2 nM
[4]
  IC50: > 1000 nM

## Cc1nnc(C(=O)N2CCN(C(=O)c3cc4nc(-c5ccc(C(F)(F)F)cc5)cc(C(C)(C)C)c4o3)C(C)(C)C2)o1 [Example I-175]
[1]
  IC50: 16 nM
[2]
  IC50: > 1000 nM
[3]
  IC50: 16 nM
[4]
  IC50: > 1000 nM

## Cc1cc(C(=O)N2CCN(C(=O)c3cc4nc(-c5ccc(Cl)cc5)cc(C(C)(C)C)c4o3)C(C)(C)C2)[nH]n1 [Example I-177]
[1]
  IC50: 1.4 nM
[2]
  IC50: > 1000 nM
[3]
  IC50: 2 nM
[4]
  IC50: > 1000 nM

## Cc1nnc(C(=O)N2CCN(C(=O)c3cc4nc(-c5ccc(Cl)cc5)cc(C(C)(C)C)c4o3)C(C)(C)C2)[nH]1 [Example I-178]
[1]
  IC50: 0.7 nM
[2]
  IC50: > 1000 nM
[3]
  IC50: 1 nM
[4]
  IC50: > 1000 nM

## Cc1nnc(C(=O)N2CCN(C(=O)c3cc4nc(-c5ccc(Cl)cc5)cc(C(C)(C)C)c4o3)C(C)(C)C2)o1 [Example I-179]
[1]
  IC50: 2.8 nM
[2]
  IC50: > 1000 nM
[3]
  IC50: 5.5 nM
[4]
  IC50: > 1000 nM

## Cc1ncc(C(=O)N2CCN(C(=O)c3cc4nc(-c5ccc(Cl)cc5)cc(C(C)(C)C)c4o3)C(C)(C)C2)[nH]1 [Example I-180]
[1]
  IC50: 1.1 nM
[2]
  IC50: > 1000 nM
[3]
  IC50: 2.3 nM
[4]
  IC50: > 1000 nM

## CC(C)(C)c1cc(-c2ccc(Cl)c(F)c2)nc2cc(C(=O)N3CCN(C(=O)c4ncn[nH]4)CC3(C)C)oc12 [Example I-181]
[1]
  IC50: 0.9 nM
[2]
  IC50: > 1000 nM
[3]
  IC50: 1.6 nM
[4]
  IC50: > 1000 nM

## CC(C)(C)c1cc(-c2ccc(F)cc2)nc2cc(C(=O)N3CCN(c4cn[nH]c4)C(=O)C3(C)C)oc12 [Example I-182]
[1]
  IC50: 1.1 nM
[2]
  IC50: > 1000 nM
[3]
  IC50: 5.8 nM
[4]
  IC50: > 1000 nM

## Cc1nnc(C(=O)N2CCN(C(=O)c3cc4nc(-c5ccc(F)cc5)cc(C(C)(C)C)c4o3)C(C)(C)C2)o1 [Example I-183]
[1]
  IC50: 2.6 nM
[2]
  IC50: > 1000 nM
[3]
  IC50: 9.1 nM
[4]
  IC50: > 1000 nM

## CC(C)(C)c1cc(-c2ccc(F)cc2)nc2cc(C(=O)N3CCN(C(=O)c4ncccn4)CC3(C)C)oc12 [Example I-184]
[1]
  IC50: 5.7 nM
[2]
  IC50: > 1000 nM
[3]
  IC50: 12 nM
[4]
  IC50: > 1000 nM

## CC(C)(C)c1cc(-c2ccc(F)cc2)nc2cc(C(=O)N3CCN(C(=O)c4ccccn4)CC3(C)C)oc12 [Example I-185]
[1]
  IC50: 1.2 nM
[2]
  IC50: > 1000 nM
[3]
  IC50: 5.1 nM
[4]
  IC50: > 1000 nM

## Cc1cc(C(=O)N2CCN(C(=O)c3cc4nc(-c5ccc(F)cc5)cc(C(C)(C)C)c4o3)C(C)(C)C2)no1 [Example I-186]
[1]
  IC50: 0.7 nM
[2]
  IC50: > 1000 nM
[3]
  IC50: 1 nM
[4]
  IC50: > 1000 nM

## CC(C)(C)c1cc(-c2ccc(F)cc2)nc2cc(C(=O)N3CCN(C(=O)c4n[nH]c(=O)[nH]4)CC3(C)C)oc12 [Example I-187]
[1]
  IC50: 10 nM
[2]
  IC50: > 1000 nM
[3]
  IC50: 20 nM
[4]
  IC50: > 1000 nM

## COC(=O)C1CC(C(=O)N2CCN(C(=O)c3cc4nc(-c5ccc(F)cc5)cc(C(C)(C)C)c4o3)C(C)(C)C2)C1 (stereo not drawn) [Example I-188]
[1]
  IC50: 3 nM
[2]
  IC50: > 1000 nM
[3]
  IC50: 6 nM
[4]
  IC50: > 1000 nM

## CC(C)(C)c1cc(-c2ccc(F)cc2)nc2cc(C(=O)N3CCN(C(=O)C4CC(C(=O)O)C4)CC3(C)C)oc12 (stereo not drawn) [Example I-189]
[1]
  IC50: 17 nM
[2]
  IC50: > 1000 nM
[3]
  IC50: 28 nM
[4]
  IC50: > 1000 nM

## COC(=O)C12CC(C(=O)N3CCN(C(=O)c4cc5nc(-c6ccc(F)cc6)cc(C(C)(C)C)c5o4)C(C)(C)C3)(C1)C2 [Example I-190]
[1]
  IC50: 11 nM
[2]
  IC50: 520 nM
[3]
  IC50: 13 nM
[4]
  IC50: 760 nM

## CC(C)(C)c1cc(-c2ccc(F)cc2)nc2cc(C(=O)N3CCN(C(=O)C45CC(C(=O)O)(C4)C5)CC3(C)C)oc12 [Example I-191]
[1]
  IC50: 403 nM
[2]
  IC50: > 1000 nM
[3]
  IC50: 713 nM
[4]
  IC50: > 1000 nM

## CC(C)(C)c1cc(-c2ccc(F)cc2)nc2cc(C(=O)N3CCN(C(=O)c4ccc(C(=O)O)cc4)CC3(C)C)oc12 [Example I-192]
[1]
  IC50: 14 nM
[2]
  IC50: > 1000 nM
[3]
  IC50: 13 nM
[4]
  IC50: > 1000 nM

## CC(C)(C)c1cc(-c2ccc(F)cc2)nc2cc(C(=O)N3CCN(C(=O)C4(C(=O)O)CC4)CC3(C)C)oc12 [Example I-193]
[1]
  IC50: 260 nM
[2]
  IC50: > 1000 nM
[3]
  IC50: 190 nM
[4]
  IC50: > 1000 nM

## CC(C)(C)c1cc(-c2ccc(F)cc2)nc2cc(C(=O)N3CCN(C(=O)CCC(=O)O)CC3(C)C)oc12 [Example I-194]
[1]
  IC50: 9 nM
[2]
  IC50: > 1000 nM
[3]
  IC50: 22 nM
[4]
  IC50: > 1000 nM

## CC(C)(C(=O)O)C(=O)N1CCN(C(=O)c2cc3nc(-c4ccc(F)cc4)cc(C(C)(C)C)c3o2)C(C)(C)C1 [Example I-195]
[1]
  IC50: 96 nM
[2]
  IC50: > 1000 nM
[3]
  IC50: 233 nM
[4]
  IC50: > 1000 nM

## CC(C)(CC(=O)N1CCN(C(=O)c2cc3nc(-c4ccc(F)cc4)cc(C(C)(C)C)c3o2)C(C)(C)C1)C(=O)O [Example I-196]
[1]
  IC50: 0.7 nM
[2]
  IC50: > 1000 nM
[3]
  IC50: 1 nM
[4]
  IC50: > 1000 nM

## CC(C)(C)c1cc(-c2ccc(F)cc2)nc2cc(C(=O)N3CCN(C(=O)[C@H]4C[C@@H]4C(=O)O)CC3(C)C)oc12 [Example I-197]
[1]
  IC50: 48 nM
[2]
  IC50: > 1000 nM
[3]
  IC50: 76 nM
[4]
  IC50: > 1000 nM

## CC1(C(=O)O)CCC(C(=O)N2CCN(C(=O)c3cc4nc(-c5ccc(F)cc5)cc(C(C)(C)C)c4o3)C(C)(C)C2)CC1 (stereo not drawn) [Example I-198]
[1]
  IC50: 0.1 nM
[2]
  IC50: > 1000 nM
[3]
  IC50: 0.8 nM
[4]
  IC50: > 1000 nM

## CC(C)(C)c1cc(-c2ccc(F)cc2)nc2cc(C(=O)N3CCN(C(=O)C4(C(N)=O)CC4)CC3(C)C)oc12 [Example I-199]
[1]
  IC50: 17 nM
[2]
  IC50: > 1000 nM
[3]
  IC50: 27 nM
[4]
  IC50: > 1000 nM

## CC(C)(C)c1cc(-c2ccc(F)cc2)nc2cc(C(=O)N3CCN(S(=O)(=O)C4CC4)CC3(C)C)oc12 [Example I-200]
[1]
  IC50: 3 nM
[2]
  IC50: > 1000 nM
[3]
  IC50: 6 nM
[4]
  IC50: > 1000 nM

## CC(C)(C)c1cc(-c2ccc(F)cc2)nc2cc(C(=O)N3CCN(S(=O)(=O)c4c[nH]cn4)CC3(C)C)oc12 [Example I-201]
[1]
  IC50: 4 nM
[2]
  IC50: > 1000 nM
[3]
  IC50: 7 nM
[4]
  IC50: > 1000 nM

## CCC(C)c1cc(-c2ccc(F)cc2)nc2cc(C(=O)N3CCNC(=O)C3(C)C)oc12 (stereo not drawn) [Example I-202]
[1]
  IC50: 5 nM
[2]
  IC50: > 1000 nM
[3]
  IC50: 5 nM
[4]
  IC50: > 1000 nM

## CC1(C)C(=O)NCCN1C(=O)c1cc2nc(-c3ccc(F)cc3)cc(C3CCCC3)c2o1 [Example I-203]
[1]
  IC50: 5 nM
[2]
  IC50: > 1000 nM
[3]
  IC50: 10 nM
[4]
  IC50: > 1000 nM
